Results published in PMC6522510 (Nature Communications, 2019).
Read-outs that look alike come from different tables or passages of the source.

Legend:
Assay in all cases: cells
Parameters in all cases: species or system AML cell lines (8); Secondary HTS, 10-point dose-response in triplicate, Cell Titer Glo viability, four-parameter fit EC50
[1] = tested on: M07e; conditions: M-07e, read-out: M07e
[2] = tested on: MOLM-13; conditions: Homo sapiens, read-out: MOLM-13
[3] = tested on: U937; conditions: Homo sapiens, read-out: U937
[4] = tested on: CHRF288-11; conditions: read-out: CHRF288-11
[5] = tested on: CMK; conditions: Homo sapiens, read-out: CMK
[6] = tested on: MV4-11; conditions: Homo sapiens, read-out: MV4-11
[7] = tested on: CMS; conditions: read-out: CMS
[8] = tested on: ML-2; conditions: Homo sapiens, read-out: ML-2

| SMILES | EC50 ([1]; 72 h) [µM] | EC50 ([2]; MOLM-13, 72 h) [µM] | EC50 ([3]; U-937, 72 h) [µM] | EC50 ([4]; 72 h) [µM] | EC50 ([5]; CMK, 72 h) [µM] | EC50 ([6]; MV4-11, 72 h) [µM] | EC50 ([7]; 72 h) [µM] | EC50 ([8]; ML-2, 72 h) [µM] | EC50 ([1]; 72 h cell viability) [µM] | EC50 ([2]; 72 h cell viability) [µM] | EC50 ([3]; U-937, 72 h cell viability) [µM] | EC50 ([4]; 72 h cell viability) [µM] | EC50 ([5]; 72 h cell viability) [µM] | EC50 ([6]; 72 h cell viability) [µM] | EC50 ([7]; 72 h cell viability) [µM] | EC50 ([8]; 72 h cell viability) [µM] |
| --- | --- | --- | --- | --- | --- | --- | --- | --- | --- | --- | --- | --- | --- | --- | --- | --- |
| COCCCn1c(N)c(C(=O)NC2CCCC2)c2nc3ccccc3nc21 [SJ000479457, CAY10591] | > 10 | > 10 | > 10 | > 10 | > 10 | > 10 | > 10 | > 10 | – | – | – | – | – | – | – | – |
| COc1cc2ncnc(-n3nc(-c4ccccn4)nc3N)c2cc1OC [SJ000510891, CP-466722] | 0.63 | > 10 | > 10 | > 10 | > 10 | > 10 | > 10 | > 10 | – | – | – | – | – | – | – | – |
| CO[C@H]1/C=C\C=C(/C)C(=O)NC2=CC(=O)C(NCCN(C)C)=C(C[C@@H](C)C[C@H](OC)[C@H](O)[C@@H](C)/C=C(\C)[C@@H]1OC(N)=O)C2=O [SJ000534765, 17-DMAG] | 2 | 0.039 | 0.025 | 0.52 | 0.75 | 0.044 | 0.092 | 0.046 | – | – | – | – | – | – | – | – |
| CC(/C=C/C(=O)NO)=C\[C@@H](C)C(=O)c1ccc(N(C)C)cc1 [SJ000534770, TRICHOSTATIN A] | 0.09 | 0.0771 | 0.0364 | 0.0434 | 0.047 | 0.042 | 0.0442 | 0.114 | – | – | – | – | – | – | – | – |
| C/C(=C\C(=O)Nc1ccccc1C(=O)O)c1ccc2ccccc2c1 [SJ000565230, BIBR-1532] | > 10 | 7.7 | > 10 | 5 | > 10 | > 10 | > 10 | > 10 | – | – | – | – | – | – | – | – |
| COc1cc(N2CCC(N3CCN(C)CC3)CC2)ccc1Nc1ncc(Cl)c(Nc2ccccc2S(=O)(=O)C(C)C)n1 [SJ000565231, NVP-TAE684] | 3.8 | 0.29 | > 10 | 3.6 | 0.46 | 0.25 | > 10 | 0.36 | – | – | – | – | – | – | – | – |
| Cc1ccccc1-n1c(Cn2cnc3c(N)ncnc32)nc2cccc(C)c2c1=O [SJ000571308, IC-87114] | > 10 | > 10 | > 10 | > 10 | > 10 | > 10 | > 10 | > 10 | – | – | – | – | – | – | – | – |
| Oc1cccc(-c2nc(N3CCOCC3)c3oc4ncccc4c3n2)c1 [SJ000574285, PIK 103] | > 10 | 0.94 | 0.41 | > 10 | 3.2 | 1.5 | > 10 | > 10 | – | – | – | – | – | – | – | – |
| CCNC(=O)C[C@@H]1N=C(c2ccc(Cl)cc2)c2cc(OC)ccc2-n2c(C)nnc21 [SJ000574791, I-BET-762] | 0.001 | 4.6 | 4.3 | > 10 | > 10 | 0.97 | 9.8 | 9.8 | – | – | – | – | – | – | – | – |
| COc1cc(Nc2ncc(F)c(Nc3ccc4c(n3)NC(=O)C(C)(C)O4)n2)cc(OC)c1OC [SJ000772392, R406] | > 10 | 0.14 | > 10 | > 10 | > 10 | 0.057 | 0.9 | > 10 | – | – | – | – | – | – | – | – |
| COc1cc(O)c2c(c1)/C=C/C[C@H](O)[C@H](O)C(=O)/C=C\C[C@H](C)OC2=O [SJ000773172, (5Z)-7-OXOZEAENOL] | 0.84 | > 10 | 6.6 | 2.1 | 0.37 | > 10 | 7.3 | 5.5 | – | – | – | – | – | – | – | – |
| Nc1[nH]nc2nnc(-c3c(-c4ccccc4)nn4ccccc34)cc12 [SJ000773182, FR 180204] | > 10 | > 10 | > 10 | > 10 | > 10 | > 10 | > 10 | > 10 | – | – | – | – | – | – | – | – |
| O=C(Nc1ccccc1-c1cn2c(CN3CCNCC3)csc2n1)c1cnc2ccccc2n1 [SJ000784238, SRT1720] | 4.4 | > 10 | 1.5 | 5.6 | > 10 | > 10 | > 10 | > 10 | – | – | – | – | – | – | – | – |
| Cc1ccc(NC(=O)CCCCCC(=O)Nc2ccccc2N)cc1 [SJ000784239, PIMELIC DIPHENYLAMIDE 106] | 6.7 | > 10 | > 10 | > 10 | > 10 | > 10 | 8.2 | > 10 | – | – | – | – | – | – | – | – |
| Cc1cc(Cl)ccc1OCCCC(=O)NO [SJ000784245, DROXINOSTAT] | > 10 | > 10 | > 10 | 0.37 | > 10 | > 10 | 6.81 | > 10 | – | – | – | – | – | – | – | – |
| O=C(Nc1cccc(NC(=O)c2cccc(O)c2O)c1)c1cccc(O)c1O [SJ000784251, MST312] | 5.2 | 1.5 | 2.8 | 2 | > 10 | > 10 | 2.9 | 3.7 | – | – | – | – | – | – | – | – |
| O=C(O)Cc1ccccc1 [SJ000784253, SODIUM PHENYLACETATE] | – | – | – | – | – | – | – | – | > 10 | 2.1 | > 10 | > 10 | > 10 | > 10 | > 10 | > 10 |
| CC(=O)Nc1ccc(NC(=S)NC(=O)c2ccc(C(C)(C)C)cc2)cc1 [SJ000784260, TENOVIN-1] | > 10 | > 10 | > 10 | > 10 | > 10 | > 10 | 0.77 | > 10 | – | – | – | – | – | – | – | – |
| COc1cc2c(NC3CCN(C)CC3)nc(N3CCCN(C)CC3)nc2cc1OCCCN(C)C [SJ000784262, UNC0224] | > 10 | > 10 | > 10 | > 10 | > 10 | > 10 | > 10 | > 10 | – | – | – | – | – | – | – | – |
| CN(C)CC(=O)Nc1ccc2[nH]c(=O)c3ccccc3c2c1 [SJ000784265, PJ34] | > 10 | > 10 | > 10 | > 10 | > 10 | > 10 | > 10 | > 10 | – | – | – | – | – | – | – | – |
